Legend:
[1] = tested on: Ba/F3-FGFR3-transfected cells; experiment: Ba/F3-FGFR3 (plus IL3) cellular proliferation assay, counterscreen with 10 ng/ml murine IL3; type: cell-based; details: plus IL3 (10 ng/ml murine IL3, counterscreen); read-out: BAF3-FGFR3 (PLUS IL3) pIC50 (converted)
How it was run: (§1)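 FGFR3-Ba/F3, 20000 cells/well, RPMI-1640 + 10% FBS, no phenol red; cpd in DMSO; 24 h, 37° C/5% CO2. Alamar Blue 4 h, RFU ex540/em590. Counterscreen: + murine IL3 10 ng/ml.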

FGFR1 (h) = FGFR1 (h) (Homo sapiens, UniProt P11362); experiment: FGFR1 (enzymatic assay), TR-FRET; type: biochemical; details: read-out: FGFR 1 pIC50 (converted)
FGFR1 (h), sequence (P11362 22-822): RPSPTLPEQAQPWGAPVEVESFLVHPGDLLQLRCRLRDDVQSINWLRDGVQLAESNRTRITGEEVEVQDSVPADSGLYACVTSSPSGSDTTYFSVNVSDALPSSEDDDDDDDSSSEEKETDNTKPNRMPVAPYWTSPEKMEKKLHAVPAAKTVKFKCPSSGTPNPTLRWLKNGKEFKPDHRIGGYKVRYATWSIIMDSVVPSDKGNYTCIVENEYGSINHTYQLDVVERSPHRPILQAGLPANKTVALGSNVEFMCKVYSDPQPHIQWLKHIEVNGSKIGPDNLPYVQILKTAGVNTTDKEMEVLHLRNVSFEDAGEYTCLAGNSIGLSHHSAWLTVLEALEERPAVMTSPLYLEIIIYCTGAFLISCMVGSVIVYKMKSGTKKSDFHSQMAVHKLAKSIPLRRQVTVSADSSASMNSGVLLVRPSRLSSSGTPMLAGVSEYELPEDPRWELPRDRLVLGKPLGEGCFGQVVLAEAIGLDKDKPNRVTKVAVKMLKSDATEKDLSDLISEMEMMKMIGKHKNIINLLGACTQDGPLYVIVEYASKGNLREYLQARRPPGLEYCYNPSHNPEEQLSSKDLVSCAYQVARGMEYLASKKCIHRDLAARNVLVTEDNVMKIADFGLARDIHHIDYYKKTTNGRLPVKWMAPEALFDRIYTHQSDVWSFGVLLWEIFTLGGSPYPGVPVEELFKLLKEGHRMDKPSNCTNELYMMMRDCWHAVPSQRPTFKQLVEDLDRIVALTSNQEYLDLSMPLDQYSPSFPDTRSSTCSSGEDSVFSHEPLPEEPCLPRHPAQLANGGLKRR

[2] = tested on: Ba/F3-KDR-transfected cells; experiment: Ba/F3-KDR (plus IL3) cellular proliferation assay, counterscreen with 10 ng/ml murine IL3; type: cell-based; details: plus IL3 (10 ng/ml murine IL3, counterscreen); read-out: BAF3-KDR (PLUS IL3) pIC50 (converted)
How it was run: (§2)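 Proliferation is measured as Alamar Blue relative fluorescence units following 24 h compound treatment of 20000 cells per well in 10% FBS medium. The IL3-supplemented run serves as a counterscreen under the same conditions.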

[3] = target: Ba/F3-FGFR4-transfected cells (Homo sapiens, UniProt P22455); experiment: Ba/F3-FGFR4 cellular proliferation assay, Alamar Blue; type: cell-based
Ba/F3-FGFR4-transfected cells, sequence (P22455 whole entry, change not shown): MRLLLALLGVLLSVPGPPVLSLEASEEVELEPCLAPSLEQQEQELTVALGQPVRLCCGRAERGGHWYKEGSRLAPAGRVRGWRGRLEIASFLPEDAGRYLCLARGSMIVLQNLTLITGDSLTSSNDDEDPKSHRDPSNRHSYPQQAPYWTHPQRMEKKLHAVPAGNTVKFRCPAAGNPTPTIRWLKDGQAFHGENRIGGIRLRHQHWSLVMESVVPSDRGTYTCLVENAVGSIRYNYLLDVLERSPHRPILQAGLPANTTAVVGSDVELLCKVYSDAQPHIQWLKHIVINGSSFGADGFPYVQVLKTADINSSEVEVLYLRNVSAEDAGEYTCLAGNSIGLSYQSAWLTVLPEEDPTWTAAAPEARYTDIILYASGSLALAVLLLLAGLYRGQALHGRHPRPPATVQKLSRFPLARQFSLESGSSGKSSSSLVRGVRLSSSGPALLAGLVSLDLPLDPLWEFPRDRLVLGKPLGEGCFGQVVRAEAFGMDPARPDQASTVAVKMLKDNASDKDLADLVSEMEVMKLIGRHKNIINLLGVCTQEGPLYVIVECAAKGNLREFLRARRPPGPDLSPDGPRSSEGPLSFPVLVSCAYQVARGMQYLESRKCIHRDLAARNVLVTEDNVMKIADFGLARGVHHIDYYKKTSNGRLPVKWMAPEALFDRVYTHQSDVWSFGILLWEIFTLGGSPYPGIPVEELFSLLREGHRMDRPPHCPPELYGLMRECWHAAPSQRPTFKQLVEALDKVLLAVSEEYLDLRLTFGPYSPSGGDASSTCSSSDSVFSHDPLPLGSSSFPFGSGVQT
How it was run: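 Proliferation of Ba/F3-FGFR4-transfected cells is gauged by Alamar Blue (resazurin) fluorescence after 24 hours of compound treatment in phenol red free RPMI-1640 with 10% FBS.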

[4] = target: T1, Ba/F3-FGFR1-transfected cells (Homo sapiens, UniProt P11362); experiment: Ba/F3-FGFR1 (minus IL3) cellular proliferation assay, Alamar Blue; type: cell-based
T1 construct: BAF3-FGFR1 (MIN IL3) pIC50; other: minus IL3
T1 sequence (P11362 whole entry, change not shown): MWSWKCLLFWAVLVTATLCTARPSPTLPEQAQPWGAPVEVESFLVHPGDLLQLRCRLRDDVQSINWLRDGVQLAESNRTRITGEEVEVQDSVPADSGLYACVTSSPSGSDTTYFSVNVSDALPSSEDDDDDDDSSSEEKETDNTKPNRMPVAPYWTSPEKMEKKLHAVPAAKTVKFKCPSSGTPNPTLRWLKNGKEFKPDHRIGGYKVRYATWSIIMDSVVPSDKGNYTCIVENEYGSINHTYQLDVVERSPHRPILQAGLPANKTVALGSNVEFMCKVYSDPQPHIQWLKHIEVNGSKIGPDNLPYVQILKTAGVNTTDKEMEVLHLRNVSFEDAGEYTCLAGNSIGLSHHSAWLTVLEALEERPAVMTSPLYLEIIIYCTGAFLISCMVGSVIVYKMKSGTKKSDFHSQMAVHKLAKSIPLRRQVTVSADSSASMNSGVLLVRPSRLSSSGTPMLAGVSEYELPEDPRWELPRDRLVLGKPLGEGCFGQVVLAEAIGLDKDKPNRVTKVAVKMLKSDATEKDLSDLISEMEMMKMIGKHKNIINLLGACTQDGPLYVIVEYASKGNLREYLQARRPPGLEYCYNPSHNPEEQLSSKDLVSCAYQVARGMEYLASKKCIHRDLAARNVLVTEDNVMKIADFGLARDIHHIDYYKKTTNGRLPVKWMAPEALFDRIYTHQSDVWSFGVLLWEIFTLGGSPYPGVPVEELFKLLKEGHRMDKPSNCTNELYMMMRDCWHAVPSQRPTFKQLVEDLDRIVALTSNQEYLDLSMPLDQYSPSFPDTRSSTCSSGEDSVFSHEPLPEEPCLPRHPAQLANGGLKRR
How it was run: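 Ba/F3-FGFR1 cells, 20000/well, RPMI-1640 + 10% FBS + 2 mM L-Gln; compound in DMSO; 24 h, 37 °C, 5% CO2; Alamar Blue 4 h; RFU ex 540/em 590.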

[5] = target: T2, Ba/F3-KDR-transfected cells (Homo sapiens, UniProt P35968); experiment: Ba/F3-KDR (minus IL3) cellular proliferation assay, Alamar Blue; type: cell-based
T2 construct: BAF3-KDR (MIN IL3) pIC50; other: minus IL3
T2 sequence (P35968 whole entry, change not shown): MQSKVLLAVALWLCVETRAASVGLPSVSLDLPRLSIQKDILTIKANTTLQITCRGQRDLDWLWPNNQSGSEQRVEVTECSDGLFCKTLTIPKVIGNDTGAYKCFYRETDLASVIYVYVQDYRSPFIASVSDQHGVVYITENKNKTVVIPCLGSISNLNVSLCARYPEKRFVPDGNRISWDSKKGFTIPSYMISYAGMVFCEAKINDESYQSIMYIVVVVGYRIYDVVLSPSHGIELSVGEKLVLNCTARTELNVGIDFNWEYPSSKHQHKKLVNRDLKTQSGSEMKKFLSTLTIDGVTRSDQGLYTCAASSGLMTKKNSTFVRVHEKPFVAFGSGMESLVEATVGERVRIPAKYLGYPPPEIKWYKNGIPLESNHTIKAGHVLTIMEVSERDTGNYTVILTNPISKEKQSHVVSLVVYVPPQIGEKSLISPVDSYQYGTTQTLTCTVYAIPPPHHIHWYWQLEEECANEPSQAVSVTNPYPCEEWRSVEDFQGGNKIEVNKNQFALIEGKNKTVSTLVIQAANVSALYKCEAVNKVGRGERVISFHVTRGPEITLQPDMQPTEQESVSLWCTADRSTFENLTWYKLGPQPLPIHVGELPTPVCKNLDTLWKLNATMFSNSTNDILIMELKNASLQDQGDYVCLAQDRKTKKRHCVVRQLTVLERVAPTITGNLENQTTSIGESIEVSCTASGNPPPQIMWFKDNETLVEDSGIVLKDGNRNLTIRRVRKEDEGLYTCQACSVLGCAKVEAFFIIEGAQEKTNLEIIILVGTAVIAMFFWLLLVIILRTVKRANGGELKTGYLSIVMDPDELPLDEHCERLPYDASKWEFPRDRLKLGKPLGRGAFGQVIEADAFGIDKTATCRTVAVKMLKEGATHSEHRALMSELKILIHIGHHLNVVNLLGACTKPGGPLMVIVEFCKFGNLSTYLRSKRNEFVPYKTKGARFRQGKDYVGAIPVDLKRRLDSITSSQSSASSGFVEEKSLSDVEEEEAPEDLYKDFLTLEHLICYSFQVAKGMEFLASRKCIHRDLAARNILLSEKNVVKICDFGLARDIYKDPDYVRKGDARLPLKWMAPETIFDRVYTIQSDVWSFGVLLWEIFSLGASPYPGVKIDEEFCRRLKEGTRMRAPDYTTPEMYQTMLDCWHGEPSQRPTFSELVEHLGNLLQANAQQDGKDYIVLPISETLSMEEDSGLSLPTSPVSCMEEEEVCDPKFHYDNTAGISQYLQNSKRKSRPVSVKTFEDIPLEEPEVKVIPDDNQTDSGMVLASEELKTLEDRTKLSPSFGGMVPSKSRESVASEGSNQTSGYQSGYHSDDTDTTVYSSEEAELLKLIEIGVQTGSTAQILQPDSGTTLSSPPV
How it was run: as §2

FGFR3 (h) = FGFR3 (h) (Homo sapiens, UniProt P22607); experiment: FGFR3 (enzymatic assay), TR-FRET; type: biochemical; details: read-out: FGFR 3 pIC50 (converted)
FGFR3 (h), sequence (P22607 23-806): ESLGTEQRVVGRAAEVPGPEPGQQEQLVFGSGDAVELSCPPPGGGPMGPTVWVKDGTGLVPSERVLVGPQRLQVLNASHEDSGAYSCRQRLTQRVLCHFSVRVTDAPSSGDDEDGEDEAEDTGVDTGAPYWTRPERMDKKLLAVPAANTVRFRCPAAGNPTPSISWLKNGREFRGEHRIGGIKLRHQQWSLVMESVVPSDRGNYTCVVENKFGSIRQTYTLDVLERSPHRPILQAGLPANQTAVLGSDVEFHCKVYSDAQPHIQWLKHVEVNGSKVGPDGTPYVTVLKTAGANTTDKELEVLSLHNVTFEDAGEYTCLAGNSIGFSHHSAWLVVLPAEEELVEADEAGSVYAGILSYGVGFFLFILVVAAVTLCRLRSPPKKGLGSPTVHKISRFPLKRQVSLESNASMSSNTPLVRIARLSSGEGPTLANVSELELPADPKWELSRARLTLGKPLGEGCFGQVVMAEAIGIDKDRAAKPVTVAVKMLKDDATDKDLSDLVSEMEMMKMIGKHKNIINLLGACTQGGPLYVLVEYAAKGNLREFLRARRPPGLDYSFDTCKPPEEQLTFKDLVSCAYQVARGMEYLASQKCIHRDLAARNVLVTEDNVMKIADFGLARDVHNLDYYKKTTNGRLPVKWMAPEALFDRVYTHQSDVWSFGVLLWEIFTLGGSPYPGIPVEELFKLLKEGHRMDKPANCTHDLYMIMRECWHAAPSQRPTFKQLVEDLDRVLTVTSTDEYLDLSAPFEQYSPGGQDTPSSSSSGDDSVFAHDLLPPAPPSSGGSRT
From the text: Time-Resolved Fluorescence Resonance Energy Transfer (TR-FRET) signal (ex340 nm.

[6] = target: T3, Ba/F3-FGFR3-transfected cells (Homo sapiens, UniProt P22607); experiment: Ba/F3-FGFR3 (minus IL3) cellular proliferation assay, Alamar Blue; type: cell-based
T3 construct: BAF3-FGFR3 (MIN IL3) pIC50; other: minus IL3
How it was run: as §1

FGFR4 (h) = FGFR4 (h) (Homo sapiens, UniProt P22455); experiment: FGFR4 (enzymatic assay), TR-FRET; type: biochemical; details: FGFR 4 pIC50, enzymatic assay

| Compound | IC50 [1] [nM] | IC50 (FGFR1 (h)) [nM] | IC50 [2] [nM] | BAF3-FGFR4 pIC50 [3] | BAF3-FGFR1 (MIN IL3) pIC50 [4] | BAF3-KDR (MIN IL3) pIC50 [5] | IC50 (FGFR3 (h)) [nM] | BAF3-FGFR3 (MIN IL3) pIC50 [6] | IC50 (FGFR4 (h)) [nM] |
| --- | --- | --- | --- | --- | --- | --- | --- | --- | --- |
| COc1cc(/N=c2\ccc3ncc(-c4cnn(C)c4)nc3n2CCN2CCOCC2)c(F)c(OC)c1 [Compound 148] | > 10000 | 1.7 | > 10000 | 7.21 | 7.58 | 6.26 | 1.26 | 7.21 | 1.62 |
| COc1cc(OC)c(F)c(N(CCN2CCOCC2)c2ccc3ncc(-c4cnn(C)c4)nc3n2)c1 [Compound 149] | > 10000 | 2.45 | > 10000 | 7.12 | 7.45 | 5.89 | 2.63 | ~7.66 | 5.13 |
| COc1cc(OC)cc(N(CCN2CCCC2=O)c2ccc3ncc(-c4cnn(C)c4)nc3n2)c1 [Compound 151] | > 10000 | 38.9 | > 10000 | 5.49 | 5.56 | <5 | 10.7 | 5.72 | 91.2 |
| COc1cc(OC)cc(N(Cc2ncc[nH]2)c2ccc3ncc(-c4ccccc4)nc3n2)c1 [Compound 152] | > 10000 | 1.07 | > 10000 | 7.46 | 7.96 | 5.56 | 1.15 | 8.08 | 1.41 |
| COc1cc(OC)c(F)c(/N=c2\ccc3ncc(-c4cnn(C)c4)nc3n2CC2CCOC2)c1F (stereo not drawn) [Compound 154] | > 10000 | 0.661 | > 10000 | ~7.6 | 7.71 | 6.43 | 0.676 | 7.59 | 0.776 |
| COc1cc(/N=c2\ccc3ncc(-c4cnn(C)c4)nc3n2Cc2cn[nH]c2)c(F)c(OC)c1 [Compound 155] | > 10000 | 0.55 | > 10000 | 8.09 | 8.13 | 6.88 | 0.407 | 8.07 | 0.324 |
| COc1cc(/N=c2\ccc3ncc(-c4cnn(C)c4)nc3n2CCN2CCCC2=O)c(F)c(OC)c1 [Compound 156] | > 10000 | 2.95 | > 10000 | 6.68 | 7.17 | 5.52 | 1.91 | 7.27 | 6.92 |
| COc1cc(OC)c(F)c(N(CCN2CCCC2=O)c2ccc3ncc(-c4cnn(C)c4)nc3n2)c1 [Compound 157] | > 10000 | 10.5 | > 10000 | 6.08 | 6.17 | 5.30 | 5.62 | ~6.66 | 26.3 |
| COc1cc(/N=c2\ccc3ncc(-c4cnn(C)c4)nc3n2CC2CCC(=O)N2C)c(F)c(OC)c1 (stereo not drawn) [Compound 158] | > 10000 | 1.74 | > 10000 | 6.78 | 7.18 | 6.16 | 1.29 | 7.20 | 2.51 |
| COc1cc(OC)c(F)c(N(CC2CCC(=O)N2C)c2ccc3ncc(-c4cnn(C)c4)nc3n2)c1 (stereo not drawn) [Compound 159] | > 10000 | 8.51 | > 10000 | 6.20 | 6.65 | 5.17 | 5.89 | 6.30 | 20.4 |
| COc1cc(OC)c(F)c(/N=c2\ccc3ncc(-c4cnn(C)c4)nc3n2CCN(C2COC2)C2COC2)c1F [Compound 164] | > 10000 | 1.02 | > 10000 | ~7.66 | 8.01 | 6.86 | 0.933 | 7.89 | 0.977 |
| COc1cc(/N=c2\ccc3ncc(-c4cnn(C)c4)nc3n2CC2CCCOC2)cc(OC)c1 (stereo not drawn) [Compound 165] | > 10000 | 1.15 | > 10000 | 7.13 | 7.38 | 6.30 | 1.12 | 7.32 | 2.04 |
| COc1cc(OC)cc(N(CC2CCCOC2)c2ccc3ncc(-c4cnn(C)c4)nc3n2)c1 (stereo not drawn) [Compound 166] | > 10000 | 5.62 | > 10000 | 6.24 | 6.72 | 5.07 | 2.63 | 6.65 | 9.33 |
| COc1cc(/N=c2\ccc3ncc(-c4cnn(C)c4)nc3n2CCN)c(F)c(OC)c1 [Compound 167] | > 10000 | 1.86 | > 10000 | 6.31 | 6.74 | 5.63 | 2.09 | 6.72 | 4.17 |
| COc1cc(OC)c(F)c(N(CCN)c2ccc3ncc(-c4cnn(C)c4)nc3n2)c1 [Compound 168] | > 10000 | 1.7 | > 10000 | 6.72 | 7.48 | 5.57 | 3.16 | 6.76 | 4.57 |
| COc1cc(OC)c(F)c(N(CC#N)c2ccc3ncc(-c4cnn(C)c4)nc3n2)c1F [Compound 173] | > 10000 | ~0.977 | > 10000 | 7.61 | 8.00 | 5.78 | 0.437 | ~8.04 | 0.724 |
| COc1cc(OC)cc(N(Cc2nc(OC)cc(OC)n2)c2ccc3ncc(-c4cnn(C)c4)nc3n2)c1 [Compound 174] | > 10000 | ~39.8 | > 10000 | 5.45 | 5.68 | <5 | 36.3 | 5.57 | 77.6 |
| Cn1cc(-c2cnc3ccc(N(Cc4ncc[nH]4)c4c(F)c(F)cc(F)c4F)nc3n2)cn1 [Compound 175] | > 10000 | 4.07 | > 10000 | 6.75 | 6.87 | <5 | 2 | 6.86 | 4.79 |
| COc1cc(OC)c(F)c(N(Cc2ncco2)c2ccc3ncc(-c4cnn(C)c4)nc3n2)c1 [Compound 177] | > 10000 | 1.78 | > 10000 | 6.79 | 7.22 | 5.67 | 1.07 | 7.10 | 2.45 |
| COc1cc(OC)c(F)c(N(Cc2c(C)noc2C)c2ccc3ncc(-c4cnn(C)c4)nc3n2)c1 [Compound 178] | > 10000 | 11.2 | > 10000 | 5.83 | 6.20 | <5 | 3.55 | 6.29 | 19.5 |
| COc1cc(/N=c2\ccc3ncc(-c4cnn(C)c4)nc3n2Cc2c(C)noc2C)c(F)c(OC)c1 [Compound 179] | > 3020 | 2.95 | > 3020 | <5.52 | <5.52 | <5.52 | 1.26 | <5.52 | 3.47 |

Reference: patent US9309242B2, “Substituted pyrido[2,3-b]pyrazines as FGFR kinase inhibitors” (priority 2011, dated 2016)
